The target in experiment [1] is T1, Recombinant human IKKβ (residues 1-737) (Homo sapiens, UniProt O14920).
T1 construct: Recombinant human IKKβ (residues 1-737); GST (C); made in house
T1 sequence (O14920 1-737): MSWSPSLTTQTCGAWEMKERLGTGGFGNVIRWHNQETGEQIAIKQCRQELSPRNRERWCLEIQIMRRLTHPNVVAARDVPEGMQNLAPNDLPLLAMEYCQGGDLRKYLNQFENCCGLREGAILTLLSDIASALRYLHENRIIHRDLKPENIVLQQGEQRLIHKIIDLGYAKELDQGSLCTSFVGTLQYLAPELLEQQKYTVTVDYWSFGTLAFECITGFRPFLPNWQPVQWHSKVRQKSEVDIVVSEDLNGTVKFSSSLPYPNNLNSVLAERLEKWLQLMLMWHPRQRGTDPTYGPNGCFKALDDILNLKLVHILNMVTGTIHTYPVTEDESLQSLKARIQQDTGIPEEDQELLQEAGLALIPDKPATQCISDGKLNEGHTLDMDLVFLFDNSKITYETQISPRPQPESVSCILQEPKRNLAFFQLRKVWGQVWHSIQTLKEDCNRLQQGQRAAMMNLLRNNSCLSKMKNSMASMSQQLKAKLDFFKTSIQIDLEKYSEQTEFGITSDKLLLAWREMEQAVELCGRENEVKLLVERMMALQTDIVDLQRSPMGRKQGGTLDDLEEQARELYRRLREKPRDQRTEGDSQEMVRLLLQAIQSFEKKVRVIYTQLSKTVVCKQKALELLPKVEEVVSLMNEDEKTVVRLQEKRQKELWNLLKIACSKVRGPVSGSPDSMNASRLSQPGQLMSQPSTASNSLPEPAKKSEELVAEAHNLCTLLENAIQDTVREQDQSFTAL
Nature of the experiment: IKK2 assay (TR-FRET). The conditions noted are these: ATP 1 μM final, read-out: pIC50 against IKK2 (converted). It is filed as biochemical. In short, it runs like this:
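TR-FRET readout (665 nm over 620 nm Eu reference) of GST-IB Ser32/36 phosphorylation after 60 min detection. Reaction: 1 μM ATP, 25 nM substrate, 0.5-5 nM GST-fused IKKβ 1-737 from baculovirus, pH 7.4 HEPES buffer, 1.7% DMSO, 15 min room temperature, EDTA-terminated.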
In general terms: TR-FRET usually uses a lanthanide donor and a delayed reading to cut background.

In experiment [2] the test system is human monocyte stimulated cytokine production (TNF-α). Nature of the experiment: Monocyte assay (LPS-stimulated TNF-α production). It counts as cell-based. The conditions noted are these: 24 h, 200 ng/mL LPS, TNF-α by ELISA. In short, it runs like this:
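TNF-α release was measured by ELISA after 24 hrs at 37 C. Cells were stimulated with 200 ng/mL E. coli LPS, with compound added 30 minutes beforehand (0.1% DMSO vehicle). Cells were Ficoll/MACS-isolated CD14+ human monocytes adhered at 1×10^6 cells/mL, and viability was checked by trypan blue.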
On the technique in general: ELISA stands for enzyme-linked immunosorbent assay.

The structures appear in SMILES notation. Where a name gives a salt, the structure may show the parent alone. A value given as a limit tells only on which side of the number the result lay.

As for `CCS(=O)(=O)N1CCC(c2c[nH]c3c(C(N)=O)cc(-c4csc(CN(C)C5CCCCC5)c4)cc23)CC1` [Example 96, 5-(5-{[cyclohexyl(methyl)amino]methyl}-3-thienyl)-3-[1-(ethylsulfonyl)-4-piperidinyl]-1H-indole-7-carboxamide], the IC50 is no more than 10 µM in experiment [1] and no more than 1.5 µM in experiment [2].
For `CCCN(C)Cc1cc(-c2cc(C(N)=O)c3[nH]cc(C4CCN(S(=O)(=O)C(C)C)CC4)c3c2)cs1` [Example 100, 3-{1-[(1-methylethyl)sulfonyl]-4-piperidinyl}-5-(5-{[methyl(propyl)amino]methyl}-3-thienyl)-1H-indole-7-carboxamide trifluoroacetate] the same measures were no more than 10 µM and no more than 1.5 µM.
The like results for `CCN(C)Cc1cc(-c2cc(C(N)=O)c3[nH]cc(C4CCN(S(=O)(=O)C(C)C)CC4)c3c2)cs1` [Example 101, 5-(5-{[ethyl(methyl)amino]methyl}-3-thienyl)-3-{1-[(1-methylethyl)sulfonyl]-4-piperidinyl}-1H-indole-7-carboxamide] were, in that order, no more than 10 µM and no more than 1.5 µM.
Consider `COCCN(C)Cc1cc(-c2cc(C(N)=O)c3[nH]cc(C4CCN(S(=O)(=O)C(C)C)CC4)c3c2)cs1` [Example 102, 3-{1-[(1-methylethyl)sulfonyl]-4-piperidinyl}-5-[5-({methyl[2-(methyloxy)ethyl]amino}methyl)-3-thienyl]-1H-indole-7-carboxamide], for which the IC50 is no more than 10 µM in experiment [1] and no more than 1.5 µM in experiment [2].
Consider `CCS(=O)(=O)N1CCC(c2c[nH]c3c(C(N)=O)cc(-c4ccc(CNC)s4)cc23)CC1` [Example 103, 3-[1-(ethylsulfonyl)-4-piperidinyl]-5-{5-[(methylamino)methyl]-2-thienyl}-1H-indole-7-carboxamide], for which the IC50 in experiment [1] is no more than 10 µM; in experiment [2] it was no more than 1.5 µM.
With `CCS(=O)(=O)N1CCC(c2c[nH]c3c(C(N)=O)cc(-c4csc(CN5CCCC5C)c4)cc23)CC1` (stereo not drawn) [Example 104, 3-[1-(ethylsulfonyl)-4-piperidinyl]-5-{5-[(2-methyl-1-pyrrolidinyl)methyl]-3-thienyl}-1H-indole-7-carboxamide trifluoroacetate], the IC50 in experiment [1] was no more than 10 µM; in experiment [2], no more than 1.5 µM.
For `CCS(=O)(=O)N1CCC(c2c[nH]c3c(C(N)=O)cc(-c4csc(CNCC(C)C)c4)cc23)CC1` [Example 105, 3-[1-(ethylsulfonyl)-4-piperidinyl]-5-(5-{[(2-methylpropyl)amino]methyl}-3-thienyl)-1H-indole-7-carboxamide trifluoroacetate] the same measures were no more than 10 µM and no more than 1.5 µM.
In the case of `CCCNCc1cc(-c2cc(C(N)=O)c3[nH]cc(C4CCN(S(=O)(=O)CC)CC4)c3c2)cs1` [Example 106, 3-[1-(ethylsulfonyl)-4-piperidinyl]-5-{5-[(propylamino)methyl]-3-thienyl}-1H-indole-7-carboxamide trifluoroacetate], the IC50 in experiment [1] is no more than 10 µM; in experiment [2] it was no more than 1.5 µM.
Turning to `CCN(CC)Cc1cc(-c2cc(C(N)=O)c3[nH]cc(C4CCN(S(=O)(=O)CC)CC4)c3c2)cs1` [Example 107, 5-{5-[(diethylamino)methyl]-3-thienyl}-3-[1-(ethylsulfonyl)-4-piperidinyl]-1H-indole-7-carboxamide trifluoroacetate], the results for the IC50 in experiment [1] and in experiment [2] were no more than 10 µM and no more than 1.5 µM, respectively.
On to `CCS(=O)(=O)N1CCC(c2c[nH]c3c(C(N)=O)cc(-c4csc(CN5[C@H](C)CC[C@H]5C)c4)cc23)CC1` [Example 108, 5-(5-{[(2R,5R)-2,5-dimethyl-1-pyrrolidinyl]methyl}-3-thienyl)-3-[1-(ethylsulfonyl)-4-piperidinyl]-1H-indole-7-carboxamide trifluoroacetate], for which the values for the IC50 in experiment [1] and in experiment [2] were no more than 10 µM and no more than 1.5 µM, respectively.
Consider `CCS(=O)(=O)N1CCC(c2c[nH]c3c(C(N)=O)cc(-c4csc(CNC5CC5)c4)cc23)CC1` [Example 109, 5-{5-[(cyclopropylamino)methyl]-3-thienyl}-3-[1-(ethylsulfonyl)-4-piperidinyl]-1H-indole-7-carboxamide trifluoroacetate], for which the figures for the IC50 in experiment [1] and in experiment [2] were no more than 10 µM and no more than 1.5 µM, respectively.
In the case of `CCS(=O)(=O)N1CCC(c2c[nH]c3c(C(N)=O)cc(-c4csc(CNC5CCC5)c4)cc23)CC1` [Example 110, 5-{5-[(cyclobutylamino)methyl]-3-thienyl}-3-[1-(ethylsulfonyl)-4-piperidinyl]-1H-indole-7-carboxamide trifluoroacetate], the IC50 in experiment [1] was no more than 10 µM; in experiment [2] it was no more than 1.5 µM.
Take `CCS(=O)(=O)N1CCC(c2c[nH]c3c(C(N)=O)cc(-c4csc(CN(C)C)c4)cc23)CC1` [Example 111, 5-{5-[(dimethylamino)methyl]-3-thienyl}-3-[1-(ethylsulfonyl)-4-piperidinyl]-1H-indole-7-carboxamide trifluoroacetate]: the results for the IC50 in experiment [1] and in experiment [2] were no more than 10 µM and no more than 1.5 µM, respectively.
The like results for `CCS(=O)(=O)N1CCC(c2c[nH]c3c(C(N)=O)cc(-c4csc(CNCC5CCCC5)c4)cc23)CC1` [Example 112, 5-(5-{[(cyclopentylmethyl)amino]methyl}-3-thienyl)-3-[1-(ethylsulfonyl)-4-piperidinyl]-1H-indole-7-carboxamide trifluoroacetate] were, in that order, no more than 10 µM and no more than 1.5 µM.
As for `CCS(=O)(=O)N1CCC(c2c[nH]c3c(C(N)=O)cc(-c4csc(CN[C@H](C)C(C)C)c4)cc23)CC1` [Example 113, 5-[5-({[(1R)-1,2-dimethylpropyl]amino}methyl)-3-thienyl]-3-[1-(ethylsulfonyl)-4-piperidinyl]-1H-indole-7-carboxamide trifluoroacetate], the IC50 in experiment [1] is no more than 10 µM; in experiment [2], no more than 1.5 µM.
Consider `CCS(=O)(=O)N1CCC(c2c[nH]c3c(C(N)=O)cc(-c4csc(CNC5CCCC5)c4)cc23)CC1` [Example 114, 5-{5-[(cyclopentylamino)methyl]-3-thienyl}-3-[1-(ethylsulfonyl)-4-piperidinyl]-1H-indole-7-carboxamide trifluoroacetate], for which the IC50 was no more than 10 µM in experiment [1] and no more than 1.5 µM in experiment [2].
As to `CCS(=O)(=O)N1CCC(c2c[nH]c3c(C(N)=O)cc(-c4csc(CNCC5CC5)c4)cc23)CC1` [Example 115, 5-(5-{[(cyclopropylmethyl)amino]methyl}-3-thienyl)-3-[1-(ethylsulfonyl)-4-piperidinyl]-1H-indole-7-carboxamide trifluoroacetate], the IC50 is no more than 10 µM in experiment [1] and no more than 1.5 µM in experiment [2].
Take `CCS(=O)(=O)N1CCC(c2c[nH]c3c(C(N)=O)cc(-c4csc(CN[C@@H](C)C(C)C)c4)cc23)CC1` [Example 116, 5-[5-({[(1S)-1,2-dimethylpropyl]amino}methyl)-3-thienyl]-3-[1-(ethylsulfonyl)-4-piperidinyl]-1H-indole-7-carboxamide trifluoroacetate]: the IC50 was no more than 10 µM in experiment [1] and no more than 1.5 µM in experiment [2].
As to `CCS(=O)(=O)N1CCC(c2c[nH]c3c(C(N)=O)cc(-c4csc(CNCc5ccccc5)c4)cc23)CC1` [Example 118, 3-[1-(ethylsulfonyl)-4-piperidinyl]-5-(5-{[(phenylmethyl)amino]methyl}-3-thienyl)-1H-indole-7-carboxamide trifluoroacetate], the IC50 in experiment [1] is no more than 10 µM; in experiment [2] it was greater than 1 µM.
Consider `CCS(=O)(=O)N1CCC(c2c[nH]c3c(C(N)=O)cc(-c4csc(CNC[C@@H]5CCCO5)c4)cc23)CC1` [Example 119, 3-[1-(ethylsulfonyl)-4-piperidinyl]-5-[5-({[(2S)-tetrahydro-2-furanylmethyl]amino}methyl)-3-thienyl]-1H-indole-7-carboxamide trifluoroacetate], for which the IC50 in experiment [1] was no more than 10 µM; in experiment [2], no more than 1.5 µM.
Regarding `CCS(=O)(=O)N1CCC(c2c[nH]c3c(C(N)=O)cc(-c4csc(CNCC5CCOCC5)c4)cc23)CC1` [Example 120, 3-[1-(ethylsulfonyl)-4-piperidinyl]-5-(5-{[(tetrahydro-2H-pyran-4-ylmethyl)amino]methyl}-3-thienyl)-1H-indole-7-carboxamide trifluoroacetate], the figures for the IC50 in experiment [1] and in experiment [2] were no more than 10 µM and no more than 1.5 µM, respectively.
